This passage reports Ki results from patent US5624959A, “Naphthyloxyacetic acid” (Ono Pharmaceutical Co., Ltd., priority 1993, dated 1997).

The assay has as its target T1, prostanoide receptor subtype (mouse EP3a) (Mus musculus, UniProt P30557).
T1 construct: expressed in transfected cells
T1 sequence (P30557 1-365): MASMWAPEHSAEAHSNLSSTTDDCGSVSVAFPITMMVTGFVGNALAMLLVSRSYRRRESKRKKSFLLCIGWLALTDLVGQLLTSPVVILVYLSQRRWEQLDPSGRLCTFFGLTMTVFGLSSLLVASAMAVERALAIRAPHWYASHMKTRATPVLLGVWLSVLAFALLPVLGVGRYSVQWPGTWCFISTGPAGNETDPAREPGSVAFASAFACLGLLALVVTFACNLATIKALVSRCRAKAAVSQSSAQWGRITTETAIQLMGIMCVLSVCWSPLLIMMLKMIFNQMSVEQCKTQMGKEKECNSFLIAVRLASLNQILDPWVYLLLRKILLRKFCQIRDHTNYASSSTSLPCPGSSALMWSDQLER
Description: Binding assay using expression cell of prostanoide receptor subtype ([3H]PGE2 competition, membrane fraction). Conditions: mouse EP3a membrane fraction (0.5 mg/ml); [3H]-PGE2 2.5 nM; pH 6.0; 1 hour at room temperature; Ki=IC50/(1+([c]/Kd)); read-out: Ki (dissociation constant). As for the experimental part:
(i) Binding assay using expression cell of prostanoide receptor subtype
The preparation of membrane fraction was carried out according to the method of Sugimoto et al [J. Biol. Chem. 267, 6463-6466(1992)], using prostanoide receptor subtype (mouse EP3a).
The standard assay mixture containing a membrane fraction (0.5 mg/ml), [^3 H]PGE2 in a final volume of […] was incubated for 1 hour at room temperature. The reaction was terminated by the addition of 3 ml of ice-cooled buffer. The mixture was rapidly filtered through a Whatman GF/B glass filter. The radioactivity associated with the filter was measured in ACS II (Amarsham) by liquid scintillation counting.
Kd and Bmax values were determined from Scatchard plots [Ann. N.Y. Acad. Sci., 51,660(1949)]. Non-specific binding was calculated as the bond in the presence of an excess (2.5 mM) of unlabeled PGE2. In the experiment for competition of specific [^3 H]-PGE2 binding by the compounds of the present invention, [^3 H]-PGE2 was added at a concentration of 2.5 nM and the compounds of the present invention were at a concentration of 1 mM.
The following buffer was used in all reactions. Buffer: 10 mM potassium phosphate (pH 6.0), 1 mM EDTA, 10 mM MgCl2, 0.1 M NaCl
The dissociation constant (Ki) of each compound was calculated by the following equation.
The term Ki denotes a measure of affinity in units of concentration, obtained from inhibition or displacement. For the compound `O=C(O)COc1cccc2c1CCC=C2CCNS(=O)(=O)/C=C/c1ccccc1` [Example 3(aa), 5-[2-[(2-phenylvinyl)sulfonylamino]ethyl]-7,8-dihydronaphthyloxyacetic acid], the Ki was found to be 7.9 nM. Consider `O=C(O)COc1cccc2c3c(ccc12)CCC(NS(=O)(=O)/C=C/c1ccccc1)C3` (stereo not shown) [Example 3(ff), 6-[(2-phenylvinyl)sulfonylamino]-5,6,7,8-tetrahydrophenanthrene-1-yl-oxyacetic acid], for which the Ki is 2.5 nM. Take `O=C(O)COc1cccc2c(CCNS(=O)(=O)/C=C/c3ccccc3)cccc12` [Example 3(g)]: the Ki stood at 7 nM.

On to `O=C(O)COc1cccc2cc(CCNS(=O)(=O)/C=C/c3ccccc3)ccc12` [Example 3(h), 6-[2-[(2-phenylvinyl)sulfonylamino]ethyl]naphthyloxyacetic acid], for which the Ki was found to be 37 nM. As to `O=C(O)COc1cccc2c(NS(=O)(=O)C=C(c3ccccc3)c3ccccc3)cccc12` [Example 3(i), 5-[(2,2-diphenylvinyl)sulfonylamino]naphthyloxyacetic acid], the Ki turned out to be 37 nM. For the compound `O=C(O)COc1cccc2c1CCCC2NS(=O)(=O)C=C(c1ccccc1)c1ccccc1` (stereo not shown) [Example 3(p), 5-[(2,2-diphenylvinyl)sulfonylamino]-5,6,7,8-tetrahydronaphthyloxyacetic acid], the Ki was 36 nM. In the case of `O=C(O)COc1cccc2c1CCCC2NS(=O)(=O)c1ccc2ccccc2c1` (stereo not shown) [Example 3(q), 5-(naphth-2-yl-sulfonylamino)-5,6,7,8-tetrahydronaphthyloxyacetic acid], the Ki was 320 nM. Consider `O=C(O)COc1cccc2c(NS(=O)(=O)CCc3ccccc3)cccc12` [Example 3(v), 5-[(2-phenylethyl)sulfonylamino]naphthyloxyacetic acid], for which the Ki was found to be 17 nM. In the case of `O=C(O)COc1cccc2c(CCNS(=O)(=O)CCc3ccccc3)cccc12` [Example 3(w), 5-[2-[(2-phenylethyl)sulfonylamino]ethyl]naphthyloxyacetic acid], the Ki is 28 nM.

In the case of `O=C(O)COc1cccc2c(CCS(=O)(=O)NCC(c3ccccc3)c3ccccc3)cccc12` [Example 6(f)], the Ki stood at 7.5 nM.
